Measurements as given in patent publication US20070254947A1, “Composition for external use” (ROHTO PHARMACEUTICAL CO., LTD., priority 2006, published 2007).

Tests used:
[1] = J. Act. Oxyg. Free Rad. 3:531-54; cited from earlier work
[2] = approximate ratio, reportedly; cited from earlier work
[3] = tested on: Normal human dermal fibroblasts (NHDF-AD)
Protocol: Normal human dermal fibroblasts (NHDF-AD: product of Kurabo Industries, Ltd.) were inoculated onto a 24-well plate (1.0×10^4 cells/well), and incubated for four days in 1 ml of DMEM containing 10% FBS(vol/vol). Subsequently, the supernatant of the wells was replaced with 1 ml of fresh DMEM containing 10% FBS(vol/vol), and 5 μl of ethanol solution containing a predetermined concentration of tocopherol or 5 μl of ethanol was added to the concentrations shown in Tables 1 and 2, and […] of 0.045% hydroquinone solution was added, followed by incubation for 24 hours. Then, the supernatant of the wells were removed by replacement with 1 ml of medium, and the number of cells that survived was determined by WST-1 assay.

Cc1cc(O)cc2c1O[C@](C)(CCC[C@H](C)CCC[C@H](C)CCCC(C)C)CC2 [δ-tocopherol]
antioxidant activity against oils and fats (rank) [1]: highest | ratio of biological activities of α-, β-, γ-, and δ-tocopherols [2]: ~0.1 | hydroquinone-cytotoxicity-reducing activity (rank among tocopherols) [3]: highest | survival rate compared with Control 1 [3]: remarkably higher survival rate

Cc1c(C)c2c(c(C)c1O)CC[C@@](C)(CCC[C@H](C)CCC[C@H](C)CCCC(C)C)O2 [α-tocopherol]
antioxidant activity against oils and fats (rank) [1]: lowest | ratio of biological activities of α-, β-, γ-, and δ-tocopherols [2]: approximately 100 | survival rate, times higher than that of Control 1 [3]: more than 1.3 times

Cc1cc(O)c(C)c2c1O[C@](C)(CCC[C@H](C)CCC[C@H](C)CCCC(C)C)CC2 [β-tocopherol]
ratio of biological activities of α-, β-, γ-, and δ-tocopherols [2]: ~24

Cc1c(O)cc2c(c1C)O[C@](C)(CCC[C@H](C)CCC[C@H](C)CCCC(C)C)CC2 [γ-tocopherol]
ratio of biological activities of α-, β-, γ-, and δ-tocopherols [2]: ~4 | hydroquinone-cytotoxicity-reducing activity (rank among tocopherols) [3]: second highest | survival rate, times higher than that of Control 1 [3]: more than 2.3 times
